Patent US20040209934A1, “Protein phosphate inhibitors” (priority 2001, published 2004)
Read-outs that look alike come from different tables or passages of the source. *1 amine or outer side, *2 acyl side, *3 side chain or, on linkers, in order; H or OH if unused. Where a SMILES comes first, the peptide text is derived from it. Bridges are numbered along the chain shown (N, C = ends). [ ]: non-standard residue; d: D form. Adda = CO[C@@H](Cc1ccccc1)[C@@H](C)/C=C(C)/C=C/[C@H](N[*:1])[C@H](C)C(=O)[*:2]; dAsp(3S-Me) = C[C@H](C(=O)[*:3])[C@@H](N[*:1])C(=O)[*:2]; d(γGlu) = O=C(O)[C@@H](CCC(=O)[*:2])N[*:1]; NMeDha = C=C(NC)C(=O)O

Tests used:
[1] = test system: HT29 (human colon carcinoma, p53 mt); assay: cells; type: cell-based
Source text: (§1) The MTT assay can be used assess cytotoxicity.

[2] = test system: HL60 (human leukaemia, p53 nul); assay: cells; type: cell-based
Source text: as §1

[3] = test system: WiDr (human colon carcinoma, p53 mt); assay: cells; type: cell-based
Source text: as §1

[4] = test system: A2780 (human ovarian carcinoma, p53 wt); assay: cells; details: A2780, 72 h, read-out: Cytotoxicity IC50, A2780 Ovarian
Source text: (§2) The cell lines chosen for study include both normal (non-cancer) and tumour-derived cell lines that represent both haematopoietic and solid tumor types with varying cell cycle control mechanisms (ie p53 status); CCD-18Co (normal human colon), L1210 (murine leukaemia, p53 mt), HL60 (human leukaemia, p53 nul), A2780 (human ovarian carcinoma, p53 wt), ADDP (cisplatin resistant A2780 cells, p53 mt), HCT116 (human colon carcinoma, p53 wt), SW480 (human colon carcinoma, p53 wt), WiDr (human colon carcinoma, p53 mt), HT29 (human colon carcinoma, p53 mt) and 143BTK-(human oesteosarcoma) cells.
(§3) The MTT assay can be used assess cytotoxicity. This assay determines cell viability by the ability of mitochondrial dehydrogenase to produce formazan crystals from 3-(4,5-dimethylthiazol-2-yl)2,5-diphenyltetrazolium bromide. The viable cell number/well is directly proportional to the production of formazan, which following solubilization, can be measured spectrophotometrically (540 nm). […] This technique is also used by the NCI(National Cancer Institute, USA) to screen for new anticancer agents. The MTT assay may be performed 72 h after exposure of the cells to varying doses of the phosphatase inhibitors. Since these agents are likely to interfere with the cell cycle it is important to test the cytotoxicity for at least two-three cell divisions.

[5] = test system: 143B (143BTK-, human oesteosarcoma); assay: cells; details: 72 h, read-out: Cytotoxicity IC50, 143B Ostesarcoma
Source text: as §2, §3

PP1 [6] = target: T1, PP1 (Homo sapiens, UniProt P62136); assay: Protein phosphatase assay with [32P]-glycogen phosphorylase a as substrate, PP1; type: biochemical; set-up: made in house
Method: (§4) Protein phosphatase assays were carried out essentially as described (Collins, E.; Sim, A. T. R.; Methods in Molecular Biology 1998, 93, 79-102) using [^32P]-glycogen phosphorylase a as substrate and recombinant PP1 (Bernt, N. Methods in Molecular Biology, 1998, 93, 67-78) or partially purified (chicken skeletal muscle) PP2A catalytic subunits (Mackintosh, C. In Protein Phosphorylation: A Practical Approach, Ed D G Hardie, IRL, 1993). Briefly, enzyme activity was measured at 30 ° C. in a buffer (final volume of […]) containing 50 mM Tris-HCl (pH 7.5), 1 mM EGTA, 0.1 mM EDTA, 5 mM Caffeine, 0.1% mercaptoethanol, 0.3 mg/mL BSA. The concentration of PP1 or PP2A used was such that the reaction was limited to 15% dephosphorylation to ensure linearity. The reaction was started with the addition of […] [^32P]-glycogen phosphorylase a and terminated after 20 minutes by the addition of […] ice-cold 70% TCA. After 10 minutes on ice the sample was centrifuged and a […] aliquot of the supematant was removed for scintillation counting of the [^32p] released during the reaction.

PP2A = PP2A (Homo sapiens, UniProt P67775); details: read-out: PP2A protein phosphatase inhibition (IC50), cited from earlier work
PP1 [7] = target: T1, PP1; details: read-out: PP1 protein phosphatase inhibition (IC50), cited from earlier work
[8] = test system: ten difference cancer cell lines of ovarian, bone, colon and baematopoietic origin; assay: cells; details: read-out: Cytotoxicity IC50 values, range over ten cancer cell lines
HCT116 cells = assay: Cell cycle analysis (propidium iodide, flow cytometry); type: cell-based, human; details: Cantharidin 25 μM, 6 h
Source text: The distribution of cells into the various phases of the cell cycle can be analysed by measuring the DNA content of the cells, via propidium iodide staining and subsequent flow cytometric analysis. Thus senescent cells (G0) and cells in the first gap (G1) of the cell cycle will have approximately half of the DNA content of cells about to under go mitosis (G2+M), while those cells synthesising DNA (S-phase) will have an intermediary DNA content. Using this technology, the effect of these new drugs on cells in the various phases of the cycle can be determined.

[9] = target: partially purified (chicken skeletal muscle) PP2A catalytic subunits (Gallus gallus, UniProt P48463); type: biochemical
Method: as §4

[10] = test system: L1210 (murine leukaemia, p53 mt); assay: cells; type: cell-based; details: Mus musculus, Table 3, read-out: Cytotoxicity IC50, L1210
Source text: as §1

[11] = test system: SW480 (human colon carcinoma, p53 wt); assay: cells; type: cell-based; details: Table 3, read-out: Cytotoxicity IC50, SW480
Source text: as §1

[12] = HT-29, 72 h exposure, background Table 2, read-out: Cytotoxicity IC50, HT29 Colon
[13] = HL-60, 72 h exposure, background Table 2, read-out: Cytotoxicity IC50, HL60 Leukaemia
[14] = 72 h exposure, background Table 2, read-out: Cytotoxicity IC50, WiDr Colon
[15] = Table 2 cantharimides, average of three experiments in triplicate, read-out: PP1 Inhibition IC50
[16] = naturally occurring toxins, background Table 1
[17] = HT-29, Table 3, read-out: Cytotoxicity IC50, HT29
[18] = HL-60, Table 3, read-out: Cytotoxicity IC50, HL60
[19] = Table 3 summary, read-out: PP1 Inhibition

Chain of PP2A (P67775 whole entry): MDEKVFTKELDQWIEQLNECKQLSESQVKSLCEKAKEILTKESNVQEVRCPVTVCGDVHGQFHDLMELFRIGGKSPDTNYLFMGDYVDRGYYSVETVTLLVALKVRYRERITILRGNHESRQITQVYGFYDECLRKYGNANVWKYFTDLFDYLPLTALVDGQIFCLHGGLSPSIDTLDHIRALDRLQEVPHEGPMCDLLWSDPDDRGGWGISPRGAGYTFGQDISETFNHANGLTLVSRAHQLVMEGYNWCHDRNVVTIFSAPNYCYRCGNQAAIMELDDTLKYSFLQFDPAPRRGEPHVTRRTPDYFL
T1 sequence (P62136 whole entry): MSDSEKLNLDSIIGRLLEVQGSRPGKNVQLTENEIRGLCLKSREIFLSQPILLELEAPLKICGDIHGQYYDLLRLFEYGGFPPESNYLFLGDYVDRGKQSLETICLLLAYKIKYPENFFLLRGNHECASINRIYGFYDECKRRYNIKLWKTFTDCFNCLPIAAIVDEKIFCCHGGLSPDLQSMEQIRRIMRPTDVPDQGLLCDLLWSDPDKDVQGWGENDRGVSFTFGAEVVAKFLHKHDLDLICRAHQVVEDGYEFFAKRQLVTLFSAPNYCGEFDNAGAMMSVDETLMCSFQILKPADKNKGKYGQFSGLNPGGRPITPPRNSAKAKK
Chain of partially purified (chicken skeletal muscle) PP2A catalytic subunits (P48463 whole entry): as the sequence (P67775 whole entry) above, with D2E, V5S, T7A, K21R, K29R, R108P counted along it

Compound CCCOC(=O)C1C(C(=O)O)[C@@H]2CC[C@H]1O2 (stereo partly shown) has an IC50 ([1]; HT-29, 72 h, read-out: Cytotoxicity IC50, HT29 Colon) of 15 ± 5 µM, an IC50 ([2]; HL-60, 72 h, read-out: Cytotoxicity IC50, HL60 Leukaemia) of 270 ± 15 µM and an IC50 ([3]; 72 h, read-out: Cytotoxicity IC50, WiDr Colon) of 33 ± 6 µM. It also gave an IC50 [4] of 110 ± 10 µM and an IC50 [5] of 450 ± 50 µM.

Compound O=C1OC(O)[C@@H]2[C@H]1[C@H]1CC[C@@H]2O1 (stereo partly shown) has an IC50 [1, 12] of 14 ± 0.3 µM, an IC50 [2, 13] of 393 ± 103 µM and an IC50 [3, 14] of 15 ± 3 µM. The IC50 [4] was 333 ± 55 µM and the IC50 [5] was 454 ± 50 µM.

In the case of O=C(O)C(Cc1ccc(O)cc1)N1C(=O)C2C3CCC(O3)C2C1=O (single isomer, unassigned) [Compound 16], the IC50 (PP1 [6]; [15]) is reported as 101 ± 34 µM.

Work on O=C(O)C(Cc1ccc(O)cc1)N1C(=O)C2C3CCC(O3)C2C1=O (single isomer, unassigned) [Compound 17] yielded an IC50 (PP1 [6]; [15]) of 570 ± 330 µM.

In the case of COC[C@@H]([C@H](O)[C@H](O)C(=O)NCC[C@H](C)c1nc(/C=C/C[C@@H]2O[C@]3(C[C@@H](O)[C@@H]2C)O[C@H]([C@H](C[C@H](O)[C@H](C)[C@H](O)[C@H](C)/C=C(C)/C(C)=C/C=C/C(C)=C\C#N)OC)[C@H](OP(=O)(O)O)C3(C)C)co1)N(C)C [Calyculin A], the IC50 (PP2A; [16]) is listed as 0.5 nM and the IC50 (PP1 [7]) is listed as 0.002 µM.

For C[C@@]12C(=O)OC(=O)[C@]1(C)[C@H]1CC[C@@H]2O1 [Compound 1, cantharidin], the IC50 [8] was 6 to 18 µM and the “Cell cycle distribution, S-phase” value (HCT116 cells) was “significant increased S-phase population”.

Compound O=C1OC(=O)[C@H]2[C@@H]1[C@@H]1CC[C@H]2O1 [Compound 3, norcantharidin, reference compound] has an IC50 (PP1 [6]; [15]) of 5.31 ± 0.36 µM.

In the case of C[C@H](C(=O)O)N1C(=O)C2C3CCC(O3)C2C1=O (stereo partly shown) [Compound 4], the “PP2A inhibition, in words” value [9] is reported as “marginal activity” and the IC50 (PP1 [6]; [15]) is reported as over 1000 µM.

C[C@@H](C(=O)O)N1C(=O)C2C3CCC(O3)C2C1=O (stereo partly shown) [Compound 5] showed an IC50 (PP1 [6]; [15]) of over 1000 µM.

For O=C(O)[C@@H](Cc1ccccc1)N1C(=O)C2C3CCC(O3)C2C1=O (stereo partly shown) [Compound 6], the IC50 (PP1 [6]; [15]) was over 1000 µM.

O=C(O)[C@H](Cc1ccccc1)N1C(=O)C2C3CCC(O3)C2C1=O (stereo partly shown) [Compound 7] gave an IC50 (PP1 [6]; [15]) of over 1000 µM.

Work on CC(C)C[C@H](C(=O)O)N1C(=O)C2C3CCC(O3)C2C1=O (stereo partly shown) [Compound 8] yielded an IC50 (PP1 [6]; [15]) of over 1000 µM.

With CC(C)C[C@@H](C(=O)O)N1C(=O)C2C3CCC(O3)C2C1=O (stereo partly shown) [Compound 9] the IC50 (PP1 [6]; [15]) was over 1000 µM.

In the case of CC[C@@H](C)[C@H](C(=O)O)N1C(=O)C2C3CCC(O3)C2C1=O (stereo partly shown) [Compound 10], the IC50 (PP1 [6]; [15]) is reported as over 1000 µM.

CC[C@H](C)[C@@H](C(=O)O)N1C(=O)C2C3CCC(O3)C2C1=O (stereo partly shown) [Compound 11] gave an IC50 (PP1 [6]; [15]) of over 1000 µM.

With O=C(O)[C@@H](Cc1c[nH]c2ccccc12)N1C(=O)C2C3CCC(O3)C2C1=O (stereo partly shown) [Compound 12] the IC50 (PP1 [6]; read-out: PP1 IC50) was 770 ± 146 µM.

Compound O=C(O)[C@H](Cc1c[nH]c2ccccc12)N1C(=O)C2C3CCC(O3)C2C1=O (stereo partly shown) [Compound 13] has an IC50 (PP1 [6]; read-out: PP1 IC50) of 312 ± 153 µM.

For O=C(O)[C@@H](Cc1cnc[nH]1)N1C(=O)C2C3CCC(O3)C2C1=O (stereo partly shown) [Compound 14], the IC50 [1, 17] was 28 ± 9 µM, the IC50 [2, 18] was 21 ± 13 µM and the IC50 [10] was 6 ± 1 µM. For the same compound, the IC50 [11] was 32 ± 12 µM, the IC50 (PP1 [6]; [15]) was 3.22 ± 0.7 µM and the IC50 (PP1 [6]; [19]) was 3.22 ± 0.7 µM.

For O=C(O)[C@H](Cc1cnc[nH]1)N1C(=O)C2C3CCC(O3)C2C1=O (stereo partly shown) [Compound 15], the IC50 [1, 17] was 28 ± 10 µM, the IC50 [2, 18] was 55 ± 24 µM and the IC50 [10] was 30 ± 14 µM. For the same compound, the IC50 [11] was 61 ± 30 µM, the IC50 (PP1 [6]; [15]) was 2.82 ± 0.6 µM and the IC50 (PP1 [6]; [19]) was 2.82 ± 0.6 µM.

NC(=O)CC[C@H](C(=O)O)N1C(=O)C2C3CCC(O3)C2C1=O (stereo partly shown) [Compound 18] gave an IC50 (PP1 [6]; [15]) of 95 ± 5 µM.

CSCC[C@@H](C(=O)O)N1C(=O)C2C3CCC(O3)C2C1=O (stereo partly shown) [Compound 19] showed an IC50 (PP1 [6]; [15]) of over 1000 µM.

In the case of C[C@@](O)(/C=C/[C@H]1CC=CC(=O)O1)[C@@H](C[C@@H](O)\C=C/C=C\C=C\CO)OP(=O)(O)O [Fostriecin], the IC50 (PP2A; [16]) is given as 3.4 nM and the IC50 (PP1 [7]; [16]) is given as 131 µM.

For C=C1C(=O)N[C@H](C)C(=O)N[C@@H](CC(C)C)C(=O)N[C@@H](C(=O)O)[C@H](C)C(=O)N[C@@H](CCCNC(=N)N)C(=O)N[C@@H](/C=C/C(C)=C/[C@H](C)[C@H](Cc2ccccc2)OC)[C@H](C)C(=O)N[C@@H](C(=O)O)CCC(=O)N1C [Microcystin LR] (R[Adda][d(γGlu)][NMeDha][dA]L[dAsp(3S-Me)]-OH; lactam N-7), the IC50 (PP2A) is listed as 0.04 nM and the IC50 (PP1 [7]) is listed as 0.0017 µM.

In the case of C=C1[C@@H](O)[C@@H]2O[C@]3(CC[C@H](/C=C/[C@@H](C)[C@@H]4CC(C)=C[C@@]5(O[C@H](C[C@@](C)(O)C(=O)O)CC[C@H]5O)O4)O3)CC[C@H]2O[C@@H]1[C@@H](O)C[C@H](C)[C@H]1O[C@@]2(CCCCO2)CC[C@H]1C [Okadaic acid], the IC50 (PP2A; [16]) is listed as 0.51 nM.

CCOC(=O)C1C(C(=O)O)[C@@H]2CC[C@H]1O2 (stereo partly shown) [R = CH3CH2] gave an IC50 (PP1 [6]; read-out: PP1 IC50) of 2.96 µM.

For CO[C@H]([C@H](O)CC(=O)[C@@H](C)[C@@H](O)CC[C@@H](C)[C@@H]1O[C@]2(CC[C@@H](C)[C@H](CC[C@H](C)C(C)=O)O2)CC[C@@H]1C)[C@H](OC(=O)C[C@@H](O)C1=C(C)C(=O)OC1=O)C(C)C [Tautomycin], the IC50 (PP2A; [16]) is given as 1 nM and the IC50 (PP1 [7]; [16]) is given as 0.0003 µM.

C[C@@]12C(=O)OC(=O)[C@]1(C)[C@H]1CC[C@@H]2O1 [drawing 2] gave an IC50 [1, 12] of 6.5 ± 0.5 µM, an IC50 [2, 13] of 10 ± 2 µM and an IC50 [3, 14] of 6.1 ± 0.5 µM. The IC50 [4] was 10 ± 2 µM and the IC50 [5] was 10 ± 1 µM.
